From patent publication US20090305963A1, “Lipocalin 2 for the Treatment, Prevention, and Management of Cancer Metastasis, Angiogenesis, and Fibrosis” (priority 2005, published 2009)
Where a name gives a salt, the structure may show the parent alone. Where a SMILES comes first, the peptide text is derived from it. The star is where a group is joined. Cbz = O=C(OCc1ccccc1)*

Key:
[1] = system: VEGF; assay: Measurement of VEGF levels by ELISA in conditioned media of 4T1 cells; assay type: cell-based, mouse; details: R cells; 2 days of incubation; dose dependent
Protocol: Conditioned media of 4T1 cells were collected after 2 days of incubation. Murine VEGF levels were determined in duplicate using a commercially available sandwich ELISA kit (R&D Systems, Minneapolis, Minn.), with a affinity purified polyclonal antibody specific for mouse VEGF has been pre-coated onto a microplate. Results were compared with a standard curve of mouse VEGF with a lower detection limit of 7 pg/mL. A model 680 microplate-reader (Bio-Rad Laboratories, CA) was used to measure light intensity correlating with VEGF binding.

[2] = system: E-cadherin; assay: EMT phenotype, E-cadherin and vimentin protein in 4T1 clones (microscopy, western blot); assay type: cell-based, mouse; details: for rank order of effect on R cell epithelial morphology and E-cadherin expression: R cells, 15 or 50 μg/ml, dose dependent
From the text: (§1) Cells were stained as described previously (Mammoto et al., Cancer Lett. 184:165-170, 2002) and images acquired with a Delta Vision system (Applied Precision, Issaquah, Wash.) equipped with an Axiovert 100 microscope (Carl Zeiss MicroImaging Inc., Shelton, Conn.) and a Photometrics 300 series scientific-grade cooled CCD camera, reading 12-bit images, and using the 63/1.4 NA plan-Neofluar objective. For immunoprecipitation and immunoblotting, tissues were weighed, diced, soaked in ice cold RIPA buffer with 1 mM phenylmethylsulfonyl fluoride (PMSF), 1 μg/ml Aprotinin, 1 mM Na3VO4, 1 nM NaF, homogenized on ice, centrifuged at 10,000 g for 10 minutes at 4° C., and the supernatant fluid collected as total cell lysate. Cultured cells were washed, scraped, and solubilized in a lysis buffer containing 20 mM Tris-HCl pH 7.5, 150 mM NaCl, 0.5% Triton X-100, 1% aprotinin, and 1 mM PMSF. After 20 minutes on ice, the cells were pelleted by centrifugation and the supernatants were used as a cell lysate. Cell lysates or immunoprecipitated cell lysates were separated by PAGE (NuPAGE® gels; Invitrogen, Carlsbad, Calif.), followed by electroblotting onto a polyvinylidenedifluoride membrane (PVDF). Protein bands were detected using SuperSignal® West Pico Chemiluminescent Substrate (Pierce Chemical Co., Rockford, Ill.) (Hanai et al., J. Cell. Biol. 158:529-539, 2002).
To assess the effects of lipocalin 2 on ras-mediated transformation, we chose a syngeneic spontaneously metastasizing murine breast cancer model (4T1 cell line) and accelerated its metastatic potential by introduction of constitutively active mouse H-ras mutant A12 using retrovirus. […] We generated stable clones of 4T1-ras cells expressing lipocalin 2 (RL) by transfection of a lipocalin 2 expression plasmid (lipocalin 2-pcDNA3.1). […] (FIG. 2A, lower panel, and FIG. 2B). […] Expression of E-cadherin in RL cells was dependent on the dose of lipocalin 2-pcDNA3.1 expression vector (transiently introduced in a population of R cells), on a conditioned medium containing lipocalin 2 (FIGS. 2D-E), as well as on recombinant lipocalin 2 protein. R cells shown in FIG. 2D were seeded in a 6-well plate and transfected with lipocalin 2 by FuGene 6 at 40% confluency. After 48 hours, cells were trypsinized, respread on 6-well plate, and transfected again in the same conditions. After 72 hours, cells were harvested and analyzed by western blotting. EV cells in FIG. 2E were seeded in a 6-well plate with 1 ml/well containing 10% FCS with DMEM and 2 ml of CM was added at 10% confluency. After 72 hours, cells were harvested and analyzed by western blotting. CM is a mixture of media from 293T cells transfected with lipocalin 2 and from 293 cells transfected with empty vector (pcDNA3.1).

[3] = system: E-cadherin; assay: E-cadherin phosphorylation (immunoprecipitation and western blot); assay type: cell-based, mouse; details: R cells vs RL cells or R cells with inhibitor
From the text: as §1

[4] = system: E-cadherin; assay: Induction of E-cadherin in embryonic mesenchyme; assay type: cell-based, rat; details: enterochelin siderophore complex with gallium instead of iron
[5] = system: raf, MEK, and ERK1/2; assay: Western blots with phosphospecific antibodies for ras-MAPK signaling molecules; assay type: cell-based, mouse; details: R cells
From the text: as §1, with “After 20 minutes on ice, the cells were pelleted by centrifugation and the supernatants were used as a cell lysate. Cell lysates or immunoprecipitated cell lysates were separated by PAGE (NuPAGE® gels; Invitrogen, Carlsbad, Calif.), followed by electroblotting onto a polyvinylidenedifluoride membrane (PVDF).” left out
For these experiments, EV and R cells were starved in DMEM without serum for 48 hours. […] Signaling events downstream of ERK activation were then monitored with a multi-copy serum-response element (SRE)-luciferase construct introduced into EV, R, and RL (FIG. 6B). […]

[6] = system: serum-response element (SRE); assay: SRE-luciferase assay; assay type: cell-based, mouse
Protocol: After transient transfection of the plasmids, cells were incubated for 20 hours in 10% FCS and luciferase activity in the cell lysates was determined using a luminometer normalized by sea-pansy luciferase activity under the control of the thymidine kinase promoter. The Dual-Luciferase Reporter Assay System was purchased from Promega (Madison, Wis.) (Hanai et al., J. Biol. Chem. 277:16464-16469, 2002).
For these experiments, EV and R cells were starved in DMEM without serum for 48 hours. During this time, half of the R cells were incubated with 50 μg/ml of lipocalin 2 protein with iron-loaded siderophore (R+Lipo:Sid:Fe), after which all cells were incubated with 10% FCS containing DMEM for 20 minutes and then harvested for western blotting with phosphospecific antibodies. Signaling events downstream of ERK activation were then monitored with a multi-copy serum-response element (SRE)-luciferase construct introduced into EV, R, and RL (FIG. 6B). For these experiments, an SRE-luciferase assay was performed on 4T1 clones after the 48 hour incubation in serum free DMEM. […] Just like R cells treated with exogenous protein (FIG. 6A), R cells infection with recombinant adenovirus carrying lipocalin 2, but not GFP, reduced SRE-luciferase activity, MEK, and ERK1/2 phosphorylation, without altering ras expression.
To localize the effect of lipocalin on ras-MAPK signaling, we utilized an adenovirus and expression plasmid encoding a constitutively active MEK (MEK-DD) (Murakami et al., Cell Growth Differ 10:333-342, 1999). MEK-DD adenoviral infection of EV cells led to increased SRE-luciferase activity (increased MAPK activity). […] RL cells in a 6-well plate were infected with an adenovirus carrying the MEK dominant active form (MEK-DD) and a Lac-Z adenovirus at the indicated multiplicities (MOI) in 2% serum including DMEM medium for 48 hours. Cells were then trypsinized, respread on 6-well plate at 5-10% confluency, and incubated with 10% serum including DMEM medium. Cell lysates were collected for western blotting 48 hours after the final plating (FIG. 6D). […]

With N#CC(=C(/N)Sc1ccccc1N)/C(C#N)=C(\N)Sc1ccccc1N [U0126] the “maximum inhibition of VEGF production, each inhibitor alone” value [1] was “approximately 50%”, the “effect on ras-induced EMT” value [2] was “reversed ras-induced EMT” and the E-cadherin phosphorylation [3] was “markedly downregulated”.

For O=c1cc(N2CCOCC2)oc2c(-c3ccccc3)cccc12 [LY294002], the “maximum inhibition of VEGF production, each inhibitor alone” value [1] was “approximately 50%”.

In the case of CC(=O)N(O)CCCCCNC(=O)CCC(=O)N(O)CCCCCNC(=O)CCC(=O)N(O)CCCCCN [DFO, Deferoxamine mesylate], the “E-cadherin expression in RL cells” value ([2]; 2-5 μM, 48 hours) is reported as “suppressed E-cadherin expression” and the “morphology of RL cells” value ([2]; 2-5 μM, 48 hours) is reported as “changed the morphology of RL cells to a mesenchymal phenotype”.

O=S(=O)([O-])[O-].O=S(=O)([O-])[O-].[Fe+3].[NH4+] [ferric ammonium sulfate] was tested, and the “phenotype of R cells after adding iron” value ([2]; 50 μM) was “did not change their phenotype”.

With [Ga] [gallium] the “induction of E-cadherin in mesenchyme when iron is substituted” value [4] was “greatly diminished”.

For CC(C)C[C@@H](C=O)NC(=O)[C@H](CC(C)C)NC(=O)[C@H](CC(C)C)NC(=O)OCc1ccccc1 [MG132] (Cbz-Leu-Leu-Leu-aldehyde), the “E-cadherin protein in EV cells” value ([2]; 0.5 nM for 2 days) was “increased E-cadherin protein”, the “E-cadherin protein in R cells” value ([2]; 0.5 nM for 2 days) was “increased E-cadherin protein” and the “E-cadherin protein in RL cells” value ([2]; 0.5 nM for 2 days) was “only slightly increased E-cadherin”. For the same molecule, the “phenotype of R cells” value ([2]; 0.5 nM for 48 hours) was “reverted R cells to an epithelial phenotype”.

B1: Lipo:Sid:Fe: recombinant mouse lipocalin 2 mixed with iron-loaded bacterial siderophore enterochelin (protein, UniProt P11672 21-200, looked up)
Neutrophil …: QDSTQNLIPAPSLLTVPLQPDFRSDQFRGRWYVVGLAGNAVQKKTEGSFTMYSTIYELQENNSYNVTSILVRDQDQGCRYWIRTFVPSSRAGQFTLGNMHRYPQVQSYNVQVATTDYNQFAMVFFRKTSENKQYFKITLYGRTKELSPELKERFTRFAKSLGLKDDNIIFSVPTDQCIDN
modifications: iron-loaded enterochelin siderophore complex
notes: recombinant mouse lipocalin 2 mixed with iron-loaded bacterial siderophore enterochelin
For B1, the “rank order of effect on R cell epithelial morphology and E-cadherin expression” value [2] was “Lipo:Sid:Fe>Lipo:Sid>Lipo”, the total ras expression ([5]; 50 μg/ml for 48 hours) was “unchanged” and the “ras induced phosphorylation of raf, MEK, and ERK1/2” value ([5]; 50 μg/ml for 48 hours serum free, then 10% FCS 20 minutes) was “largely abrogated”. For the same molecule, the “SRE-luciferase activity induced by CA-H-ras” value ([6]; EV cells transfected with H-ras V12) was “downregulated SRE-luciferase activity” and the “inhibition of MEK-DD induced SRE-luciferase activity” value ([6]; EV cells transfected with MEK-DD) was “unable to inhibit this effect”.

B2: Lipo:Sid: recombinant mouse lipocalin 2 mixed with iron-unloaded bacterial siderophore enterochelin (protein, UniProt P11672 21-200, looked up)
Neutrophil …: QDSTQNLIPAPSLLTVPLQPDFRSDQFRGRWYVVGLAGNAVQKKTEGSFTMYSTIYELQENNSYNVTSILVRDQDQGCRYWIRTFVPSSRAGQFTLGNMHRYPQVQSYNVQVATTDYNQFAMVFFRKTSENKQYFKITLYGRTKELSPELKERFTRFAKSLGLKDDNIIFSVPTDQCIDN
modifications: iron-free enterochelin siderophore
notes: recombinant mouse lipocalin 2 mixed with iron-unloaded bacterial siderophore enterochelin
With B2 the “rank order of effect on R cell epithelial morphology and E-cadherin expression” value [2] was “Lipo:Sid:Fe>Lipo:Sid>Lipo”.

B3: Lipo: recombinant mouse lipocalin 2 protein expressed in E. coli BL21, without siderophore (protein, UniProt P11672 21-200, looked up)
Neutrophil …: QDSTQNLIPAPSLLTVPLQPDFRSDQFRGRWYVVGLAGNAVQKKTEGSFTMYSTIYELQENNSYNVTSILVRDQDQGCRYWIRTFVPSSRAGQFTLGNMHRYPQVQSYNVQVATTDYNQFAMVFFRKTSENKQYFKITLYGRTKELSPELKERFTRFAKSLGLKDDNIIFSVPTDQCIDN
For B3, the “rank order of effect on R cell epithelial morphology and E-cadherin expression” value [2] was “Lipo:Sid:Fe>Lipo:Sid>Lipo”.
